Source: patent US12227501B2, “3-amino-2-[2-(acylamino)pyridin-4-yl]-1,5,6,7-tetrahydro-4h-pyrrolo[3,2-c]pyridin-4-one as CSNK1 inhibitors” (Bayer Aktiengesellschaft, priority 2019, dated 2025)
Values joined by “and” are separate entries in the source; they are usually repeats but may differ in a detail not shown here. Equal entries are not always repeated. Structures can show the parent of a compound that is named as a salt. Where two headings read alike, the source gives them in different places.

What was measured:
Assay type in all cases: biochemical
[1] = biological target: T1, human CSNK1A1 (Homo sapiens (Human), UniProt P48729); assay: CSNK1A1 Assay 2 (ADP-Glo, 1 μM ATP); conditions: substrate biotin-Ahx-KRRRAL-pS-VASLPGL, read-out: CSNK1A1 Assay 2 IC50 [mol/l] (median)
T1 sequence (P48729 whole entry, the tested form may be a part): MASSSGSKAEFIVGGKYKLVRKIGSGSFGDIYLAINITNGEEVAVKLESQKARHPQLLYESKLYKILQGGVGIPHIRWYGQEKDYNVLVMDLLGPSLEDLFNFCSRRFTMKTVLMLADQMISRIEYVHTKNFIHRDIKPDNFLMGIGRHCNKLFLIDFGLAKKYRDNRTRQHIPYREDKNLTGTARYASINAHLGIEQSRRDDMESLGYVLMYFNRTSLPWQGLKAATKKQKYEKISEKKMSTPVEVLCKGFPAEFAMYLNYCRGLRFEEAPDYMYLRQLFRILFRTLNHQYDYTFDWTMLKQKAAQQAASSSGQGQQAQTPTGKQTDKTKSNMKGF
Outline: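 Full-length human CSNK1A1 as an N-terminal GST fusion (baculovirus/insect cells) with biotinylated peptide substrate biotin-Ahx-KRRRAL-pS-VASLPGL and 1 μM ATP, in HEPES pH 7.5 buffer. Compounds were pre-incubated with enzyme (~0.0375 ng/μL) for 15 min at 22 °C. Generated ADP was read by ADP-Glo luminescence as the activity measure.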

[2] = biological target: T1, human CSNK1A1; assay: CSNK1A1 High ATP Assay (ADP-Glo, 1 mM ATP); conditions: read-out: CSNK1A1 high ATP assay IC50 [mol/l] (median)
Outline: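 Kinase activity taken as ADP generated, quantified by ADP-Glo luminescence after 1 h ATP depletion and 1 h detection at 22 °C. Enzyme is GST–full-length human CSNK1A1 (insect cell-expressed), pre-bound to compound for 15 min, with phosphopeptide substrate and 1 mM ATP.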

[3] = biological target: human CSNK1D (Homo sapiens (Human), UniProt P48730); assay: CSNK1D Assay (ADP-Glo, 1 μM ATP); conditions: read-out: CSNK1D IC50 [mol/l] (median)
Chain of human CSNK1D (P48730 whole entry): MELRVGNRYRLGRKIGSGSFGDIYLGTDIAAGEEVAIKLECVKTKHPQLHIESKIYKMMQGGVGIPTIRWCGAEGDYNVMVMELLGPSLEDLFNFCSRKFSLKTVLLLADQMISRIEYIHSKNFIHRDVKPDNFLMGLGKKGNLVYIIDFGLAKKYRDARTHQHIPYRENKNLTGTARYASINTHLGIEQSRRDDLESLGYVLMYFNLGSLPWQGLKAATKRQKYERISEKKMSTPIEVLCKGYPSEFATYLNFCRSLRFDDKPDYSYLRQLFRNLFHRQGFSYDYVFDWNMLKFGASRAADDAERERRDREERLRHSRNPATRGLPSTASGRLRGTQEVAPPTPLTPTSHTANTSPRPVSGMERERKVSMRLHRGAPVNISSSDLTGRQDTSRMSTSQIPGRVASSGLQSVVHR
Outline: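 Activity is read as ADP produced, by ADP-Glo luminescence after 1 h steps at 22 °C. The reaction uses 1 μM ATP, a biotinylated peptide and insect-cell-expressed GST–CSNK1D (about 0.5 ng/μL) in pH 7.5 HEPES buffer, with 15 min compound–enzyme preincubation.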

[4] = biological target: wild-type Epidermal Growth Factor Receptor (EGFR) (Homo sapiens (Human), UniProt P00533); assay: WT-EGFR Kinase Assay (TR-FRET, 2 mM ATP)
Chain of wild-type Epidermal Growth Factor Receptor (EGFR) (P00533 669-1210): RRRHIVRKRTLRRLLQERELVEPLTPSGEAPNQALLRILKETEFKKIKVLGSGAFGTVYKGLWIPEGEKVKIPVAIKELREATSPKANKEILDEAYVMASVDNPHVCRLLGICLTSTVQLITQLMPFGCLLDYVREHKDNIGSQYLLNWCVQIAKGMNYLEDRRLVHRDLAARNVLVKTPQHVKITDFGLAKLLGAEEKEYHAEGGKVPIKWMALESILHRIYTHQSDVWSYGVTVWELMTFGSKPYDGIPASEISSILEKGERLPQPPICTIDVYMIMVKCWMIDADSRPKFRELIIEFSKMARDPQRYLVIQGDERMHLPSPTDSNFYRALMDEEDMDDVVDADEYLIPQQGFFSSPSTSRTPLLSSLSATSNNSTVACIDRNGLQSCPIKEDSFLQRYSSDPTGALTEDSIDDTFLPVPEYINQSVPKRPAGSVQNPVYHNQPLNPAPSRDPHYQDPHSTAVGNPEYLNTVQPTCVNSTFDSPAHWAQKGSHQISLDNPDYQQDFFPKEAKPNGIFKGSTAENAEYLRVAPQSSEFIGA

[5] = read-out: EGFR Wildtyp- 2 mM ATP IC50 [mol/l] (median)
[6] = EGFR Wildtyp- 2 mM ATP IC50 [mol/l] (median)

SMILES	IC50 [1]	IC50 [2]	IC50 [3]	IC50 [4, 5]	IC50 [4, 6]
O=C(Cc1ccc(F)cc1)Nc1cc(-c2[nH]c3c(c2Nc2ccccc2)C(=O)NC2(CCC2)C3)ccn1 [Example 57, N-[4-(3′-anilino-4′-oxo-1′,4′,5′,7′-tetrahydrospiro[cyclobutane-1,6′-pyrrolo[3,2-c]pyridin]-2′-yl)pyridin-2-yl]-2-(4-fluorophenyl)acetamide]	2.01 nM	10.3 nM	3.1 nM	870 nM	
CC(C(=O)Nc1cc(-c2[nH]c3c(c2Nc2ccccc2)C(=O)N(C)CC3)ccn1)c1ccncc1 (single isomer, unassigned; (+)) [Example 73, (+)-N-[4-(3-anilino-5-methyl-4-oxo-4,5,6,7-tetrahydro-1H-pyrrolo[3,2-c]pyridin-2-yl)pyridin-2-yl]-2-(pyridin-4-yl)propanamide]	2.38 nM	63.3 nM	4.46 nM		6780 nM
CCN1CCc2[nH]c(-c3ccnc(NC(=O)C(C)c4ccc(F)cc4)c3)c(Nc3ccccc3)c2C1=O (stereo not shown) [Example 21, N-[4-(3-anilino-5-ethyl-4-oxo-4,5,6,7-tetrahydro-1H-pyrrolo[3,2-c]pyridin-2-yl)pyridin-2-yl]-2-(4-fluorophenyl)propanamide]	7.67 nM	344 nM	21.5 nM	> 20000 nM	
CC1Cc2[nH]c(-c3ccnc(NC(=O)Cc4ccncc4)c3)c(Nc3ccccc3)c2C(=O)N1C (racemic) [Example 97, N-{4-[3-anilino-5,6-dimethyl-4-oxo-4,5,6,7-tetrahydro-1H-pyrrolo[3,2-c]pyridin-2-yl]pyridin-2-yl}-2-(pyridin-4-yl)acetamide]	4.4 nM	47 nM	5.73 nM		529 nM
CN1CCc2[nH]c(-c3ccnc(NC(=O)C(CO)c4ccc(F)cc4)c3)c(Nc3ccccc3)c2C1=O (single isomer, unassigned) [Example 19, N-[4-(3-anilino-5-methyl-4-oxo-4,5,6,7-tetrahydro-1H-pyrrolo[3,2-c]pyridin-2-yl)pyridin-2-yl]-2-(4-fluorophenyl)-3-hydroxypropanamide]	1.7 nM	10.6 nM	6.55 nM		> 20 µM (5×) and 16.1 µM
CC1(C)Cc2[nH]c(-c3ccnc(NC(=O)C(CC(F)F)c4ccc(F)cc4)c3)c(Nc3ccccc3)c2C(=O)N1 (racemic) [Example 48, N-[4-(3-anilino-6,6-dimethyl-4-oxo-4,5,6,7-tetrahydro-1H-pyrrolo[3,2-c]pyridin-2-yl)pyridin-2-yl]-4,4-difluoro-2-(4-fluorophenyl)butanamide]	7.69 nM	37 nM	13.4 nM		14500 nM
CN1CCc2[nH]c(-c3ccnc(NC(=O)Cc4ccncc4)c3)c(Nc3ccccc3)c2C1=O [Example 64, N-[4-(3-anilino-5-methyl-4-oxo-4,5,6,7-tetrahydro-1H-pyrrolo[3,2-c]pyridin-2-yl)pyridin-2-yl]-2-(pyridin-4-yl)acetamide]	2.65 nM	31 nM	5.51 nM	1200 nM	
COCCNC(=O)c1ccc(CC(=O)Nc2cc(-c3[nH]c4c(c3Nc3ccccc3)C(=O)N(C)CC4)ccn2)cc1 [Example 152, 4-(2-{[4-(3-anilino-5-methyl-4-oxo-4,5,6,7-tetrahydro-1H-pyrrolo[3,2-c]pyridin-2-yl)pyridin-2-yl]amino}-2-oxoethyl)-N-(2-methoxyethyl)benzamide]	2.45 nM	37 nM	7.96 nM	1660 nM	
CC(C(=O)Nc1cc(-c2[nH]c3c(c2Nc2ccccc2)C(=O)N(C)CC3)ccn1)c1ccc(Cl)cc1 (single isomer, unassigned; (-)) [Example 80, (−)-N-[4-(3-anilino-5-methyl-4-oxo-4,5,6,7-tetrahydro-1H-pyrrolo[3,2-c]pyridin-2-yl)pyridin-2-yl]-2-(4-chlorophenyl)propanamide]	24.1 nM	2840 nM	30.3 nM		> 20000 nM
CC1(C)Cc2[nH]c(-c3ccnc(NC(=O)C(CC(F)F)c4ccc(F)cc4)c3)c(Nc3ccccc3)c2C(=O)N1 (single isomer, unassigned) [Example 50, N-[4-(3-anilino-6,6-dimethyl-4-oxo-4,5,6,7-tetrahydro-1H-pyrrolo[3,2-c]pyridin-2-yl)pyridin-2-yl]-4,4-difluoro-2-(4-fluorophenyl)butanamide]	51 nM	2460 nM	68.2 nM	> 20000 nM	
CC1(C)Cc2[nH]c(-c3ccnc(NC(=O)C(CNC(=O)OC(C)(C)C)c4ccc(F)cc4)c3)c(Nc3ccccc3)c2C(=O)N1 (racemic) [Example 138, tert-butyl [3-{[4-(3-anilino-6,6-dimethyl-4-oxo-4,5,6,7-tetrahydro-1H-pyrrolo[3,2-c]pyridin-2-yl)pyridin-2-yl]amino}-2-(4-fluorophenyl)-3-oxopropyl]carbamate (Racemate)]	16.6 nM	430 nM	22.4 nM		11100 nM
CC1(C)Cc2[nH]c(-c3ccnc(NC(=O)C(CC(F)F)c4ccc(S(C)(=O)=O)cc4)c3)c(Nc3ccccc3)c2C(=O)N1 (racemic) [Example 118, N-[4-(3-anilino-6,6-dimethyl-4-oxo-4,5,6,7-tetrahydro-1H-pyrrolo[3,2-c]pyridin-2-yl)pyridin-2-yl]-4,4-difluoro-2-[4-(methanesulfonyl)phenyl]butanamide (Racemate)]	5.16 nM	107 nM	12.9 nM		7260 nM
CN(C)CCCC(C(=O)Nc1cc(-c2[nH]c3c(c2Nc2ccccc2)C(=O)N(C)CC3)ccn1)c1ccccc1 (racemic) [Example 58, N-[4-(3-anilino-5-methyl-4-oxo-4,5,6,7-tetrahydro-1H-pyrrolo[3,2-c]pyridin-2-yl)pyridin-2-yl]-5-(dimethylamino)-2-phenylpentanamide]	12.4 nM	1200 nM	40.6 nM		> 20000 nM
CC1Cc2[nH]c(-c3ccnc(NC(=O)C(CC(F)F)c4ccc(F)cc4)c3)c(Nc3ccccc3F)c2C(=O)N1C (single isomer, unassigned; (+)) [Example 105, (+)-4,4-difluoro-N-{4-[3-(2-fluoroanilino)-5,6-dimethyl-4-oxo-4,5,6,7-tetrahydro-1H-pyrrolo[3,2-c]pyridin-2-yl]pyridin-2-yl}-2-(4-fluorophenyl)butanamide]	4.06 nM	94.5 nM	5.45 nM	> 20000 nM	
CC1(C)Cc2[nH]c(-c3ccnc(NC(=O)C(CC(F)F)c4ccc(F)cc4)c3)c(Nc3ccccc3)c2C(=O)N1 (single isomer, unassigned; (+)) [Example 49, (+)-N-[4-(3-anilino-6,6-dimethyl-4-oxo-4,5,6,7-tetrahydro-1H-pyrrolo[3,2-c]pyridin-2-yl)pyridin-2-yl]-4,4-difluoro-2-(4-fluorophenyl)butanamide]	4.57 nM	19.6 nM	7.3 nM		> 20000 nM
CC1(C)Cc2[nH]c(-c3ccnc(NC(=O)C(CC(F)F)c4ccc(F)cc4)c3)c(Nc3cccc(F)c3Cl)c2C(=O)N1 (racemic) [Example 109, N-{4-[3-(2-chloro-3-fluoroanilino)-6,6-dimethyl-4-oxo-4,5,6,7-tetrahydro-1H-pyrrolo[3,2-c]pyridin-2-yl]pyridin-2-yl}-4,4-difluoro-2-(4-fluorophenyl)butanamide]	16.4 nM	136 nM	14.1 nM		> 20000 nM
CN1CCc2[nH]c(-c3ccnc(NC(=O)C(CCN4CCOCC4)c4ccccc4)c3)c(Nc3ccccc3)c2C1=O (stereo not shown) [Example 30, N-[4-(3-anilino-5-methyl-4-oxo-4,5,6,7-tetrahydro-1H-pyrrolo[3,2-c]pyridin-2-yl)pyridin-2-yl]-4-(morpholin-4-yl)-2-phenylbutanamide]	8.01 nM	485 nM	25.9 nM	> 20000 nM	
CC(C(=O)Nc1cc(-c2[nH]c3c(c2Nc2ccccc2)C(=O)N(C)C2(CCC2)C3)ccn1)c1ccc(F)cc1 (single isomer, unassigned; enantiomer 1) [Example 158, (−)-N-[4-(3′-anilino-5′-methyl-4′-oxo-1′,4′,5′,7′-tetrahydrospiro[cyclobutane-1,6′-pyrrolo[3,2-c]pyridin]-2′-yl)pyridin-2-yl]-2-(4-fluorophenyl)propanamide (Enantiomer 1)]	239 nM and 263 nM and 52.5 nM and 67.7 nM	> 1630 nM and 5570 nM	188 nM		> 20000 nM
CC1(C)Cc2[nH]c(-c3ccnc(NC(=O)C(CN)c4ccc(F)cc4)c3)c(Nc3ccccc3)c2C(=O)N1 (racemic) [Example 139, 3-amino-N-[4-(3-anilino-6,6-dimethyl-4-oxo-4,5,6,7-tetrahydro-1H-pyrrolo[3,2-c]pyridin-2-yl)pyridin-2-yl]-2-(4-fluorophenyl)propanamide-hydrogen chloride salt (Racemate)]	3.21 nM	41.4 nM	7.73 nM		681 nM
